Results: patent US20230000842A1, “METHODS OF TREATING CARTILAGE DISORDERS THROUGH INHIBITION OF CLK AND DYRK” (SAMUMED, LLC, priority 2019, published 2023)

Tests used:
[1] = biological target: CLK2 kinase (Homo sapiens, UniProt P49760); experiment: CLK2 kinase activity assay (Z-lyte FRET); type: biochemical; details: Z-lyte Ser/Thr 6 peptide, 60 μM ATP, 1 h at room temperature;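 also: FRET read-out as coumarin to fluorescein emission ratio, unphosphorylated peptide as 0% and phosphorylated peptide as 100% controls, duplicate reactions, non-linear regression fit of dose-response curves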
[2] = test system: Wnt pathway activity (SW480 colon carcinoma cells stably expressing the Sp5-Luc reporter); experiment: Wnt pathway activity screening assay (Sp5-Luc reporter gene assay); details: Homo sapiens, SW480, Table 4; SW480 cells stably expressing Sp5-Luc reporter, 10-point dose-response from 10 μM, 36 to 48 hours
[3] = test system: primary human mesenchymal stem cells (hMSCs); experiment: Chondrogenesis screening using primary human mesenchymal stem cells; type: cell-based; details: Homo sapiens, Mesenchymal stem cells, hMSC chondrogenesis; for Emax: maximum activity relative to TGF-β3 (10 ng/mL) positive control, read-out: Max. Activity as % TGF-β3 activity; for EC50: concentration required to induce 50% levels of chondrogenesis with TGF-β3 as positive control, read-out: Conc (nM) of 50% TGF-β3 activity
Summary of the method: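 Primary hMSCs at passage 3–6 were treated across compound concentrations, with TGF-β3 as positive control. Chondrogenic nodule area per well was normalized to 3 DMSO wells on the same plate (fold over DMSO, 2–3 replicates). EC50, maximum activity and the dose reaching it were derived.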

[4] = biological target: CLK3 kinase (Homo sapiens, UniProt P49761); experiment: CLK3 kinase activity assay (Z-lyte FRET); type: biochemical; details: Z-lyte Ser/Thr 18 peptide, 156 μM ATP, 1 h at room temperature;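 also: kinase activity read as coumarin/fluorescein emission ratio by FRET, unphosphorylated peptide as 0% and phosphorylated peptide as 100% control, values from non-linear regression of dose-response curves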
CLK3 kinase, sequence (P49761 whole entry): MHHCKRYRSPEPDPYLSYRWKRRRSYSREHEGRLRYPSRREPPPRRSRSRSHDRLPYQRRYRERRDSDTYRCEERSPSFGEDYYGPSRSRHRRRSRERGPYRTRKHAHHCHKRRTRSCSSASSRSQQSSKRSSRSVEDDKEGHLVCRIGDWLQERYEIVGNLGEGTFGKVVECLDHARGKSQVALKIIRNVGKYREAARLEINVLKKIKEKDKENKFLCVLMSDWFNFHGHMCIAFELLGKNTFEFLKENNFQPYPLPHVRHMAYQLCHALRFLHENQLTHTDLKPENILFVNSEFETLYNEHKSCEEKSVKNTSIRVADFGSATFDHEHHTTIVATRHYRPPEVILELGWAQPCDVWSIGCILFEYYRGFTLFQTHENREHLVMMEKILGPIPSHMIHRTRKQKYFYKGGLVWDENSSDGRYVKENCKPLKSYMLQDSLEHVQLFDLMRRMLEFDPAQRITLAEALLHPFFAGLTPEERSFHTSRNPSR
Procedure: This is a non-radioactive assay using fluorescence resonance energy transfer (FRET) between coumarin and fluorescein to detect kinase activity which is represented as a ratio of coumarin emission/fluorescein emission.
The mixture was allowed to incubate with the representative compounds for one hour at room temperature. All reactions were performed in duplicate. Unphosphorylated (“0% Control”) and phosphorylated (“100% control”) forms of Ser/Thr 18 served as control reactions. Additionally, an 11-point dose-response curve of Staurosporine (1 μM top) was run to serve as a positive compound control.
After incubation, Development Reagent A was diluted in Development Buffer then added to the reaction and allowed to further incubate for one hour at room temperature.
Dose-response curves were generated and inhibitory concentration (IC50) values were calculated using non-linear regression curve fit in the Dotmatics' Studies Software (Bishops Stortford, UK).

CLK2 kinase, sequence (P49760 whole entry): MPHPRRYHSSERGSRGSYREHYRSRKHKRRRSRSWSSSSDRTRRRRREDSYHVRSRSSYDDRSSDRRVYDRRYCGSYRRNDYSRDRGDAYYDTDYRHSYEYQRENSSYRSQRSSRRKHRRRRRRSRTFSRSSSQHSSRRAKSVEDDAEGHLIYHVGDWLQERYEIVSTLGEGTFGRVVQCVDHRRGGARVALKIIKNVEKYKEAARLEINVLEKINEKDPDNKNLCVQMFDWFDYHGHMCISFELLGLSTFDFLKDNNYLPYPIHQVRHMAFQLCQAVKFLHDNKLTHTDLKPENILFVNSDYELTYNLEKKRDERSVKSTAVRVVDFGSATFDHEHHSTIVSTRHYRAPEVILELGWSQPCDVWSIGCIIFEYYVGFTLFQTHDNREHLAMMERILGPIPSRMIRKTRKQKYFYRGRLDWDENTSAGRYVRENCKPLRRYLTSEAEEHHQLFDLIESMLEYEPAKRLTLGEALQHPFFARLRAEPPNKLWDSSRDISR

Row | EC50 [1] | EC50 [2] | EC50 [4] | EC50 [3] | SMILES | Emax [3]
1 | 17 nM | 700 nM | 2040 nM |  | CC(C)C(=O)Nc1cncc(-c2cc3c(-c4cc5c(N6CCN(C)CC6)cccc5[nH]4)n[nH]c3cn2)c1 [compound 474] | 36.4%
2 | 11 nM | 7690 nM | 569 nM |  | CC(C)C(=O)Nc1cncc(-c2ccc3[nH]nc(-c4cc5c(N6CCN(C)CC6)nccc5[nH]4)c3c2)c1 [compound 475] | 21%
3 | 7 nM | > 10000 nM | 800 nM | 30 nM | CC(C)C(=O)Nc1cncc(-c2cnc3[nH]nc(-c4cc5c(N6CCN(C)CC6)nccc5[nH]4)c3c2)c1 [compound 476] | 61.6%
4 | 3 nM | 3450 nM | 204 nM |  | CC(C)CC(=O)Nc1cncc(-c2ccc3[nH]nc(-c4cc5c(N6CCN(C)CC6)ccnc5[nH]4)c3n2)c1 [compound 477] | 49.5%
5 | 9 nM | 1880 nM | 137 nM | 10 nM | CN1CCN(c2nccc3[nH]c(-c4n[nH]c5cnc(-c6cncc(NC(=O)C(C)(C)C)c6)cc45)cc23)CC1 [compound 478] | 88.2%
6 | 4 nM | 3480 nM | 145 nM |  | CN1CCN(c2cncc3[nH]c(-c4n[nH]c5ccc(-c6cncc(NC(=O)CC(C)(C)C)c6)cc45)cc23)CC1 [compound 479] | 30.8%
7 | 7 nM | 3870 nM | 186 nM |  | CN1CCN(c2ccnc3[nH]c(-c4n[nH]c5ccc(-c6cncc(NC(=O)CC(C)(C)C)c6)nc45)cc23)CC1 [compound 480] | 30.3%
8 | 9 nM | > 10000 nM | 741 nM |  | CN1CCN(c2nccc3[nH]c(-c4n[nH]c5ncc(-c6cncc(NC(=O)C7CCCC7)c6)cc45)cc23)CC1 [compound 481] | 30.3%
9 | 14 nM | 5270 nM | 2380 nM |  | CN1CCN(c2nccc3[nH]c(-c4n[nH]c5ccc(-c6cncc(NC(=O)C7CCCCC7)c6)cc45)cc23)CC1 [compound 482] | 37.8%
10 | 8 nM | 3420 nM | 303 nM | 10 nM | CN1CCN(c2nccc3[nH]c(-c4n[nH]c5cnc(-c6cncc(NC(=O)C7CCCCC7)c6)cc45)cc23)CC1 [compound 483] | 60.8%
11 | 6 nM | > 10000 nM | 428 nM |  | CN1CCN(c2nccc3[nH]c(-c4n[nH]c5ccc(-c6cncc(NC(=O)CC7CCNCC7)c6)cc45)cc23)CC1 [compound 484] | 42.8%
12 | 4 nM | > 10000 nM | 303 nM |  | CN1CCN(c2cncc3[nH]c(-c4n[nH]c5ccc(-c6cncc(NC(=O)CC7CCNCC7)c6)cc45)cc23)CC1 [compound 485] | 289%
13 | 6 nM | 2140 nM | 291 nM |  | CN1CCN(c2nccc3[nH]c(-c4n[nH]c5ccc(-c6cncc(NC(=O)c7ccccc7)c6)cc45)cc23)CC1 [compound 486] | 34.6%
14 | 5 nM | 2800 nM | 302 nM | 10 nM | CN1CCN(c2nccc3[nH]c(-c4n[nH]c5cnc(-c6cncc(NC(=O)c7ccccc7)c6)cc45)cc23)CC1 [compound 487] | 67%
15 | 3 nM | 6100 nM | 2530 nM | 10 nM | CN1CCN(c2ccnc3[nH]c(-c4n[nH]c5ccc(-c6cncc(NC(=O)c7ccccc7)c6)nc45)cc23)CC1 [compound 488] | 61.8%
16 | 19 nM | > 10000 nM | 340 nM | 300 nM | CN1CCN(c2ccnc3[nH]c(-c4n[nH]c5cnc(-c6cncc(CNCC7CCCC7)c6)cc45)cc23)CC1 [compound 489] | 150%
17 | 20 nM | 3890 nM | 1940 nM |  | CN(C)Cc1cncc(-c2cc3c(-c4cc5c(N6CCN(C)CC6)nccc5[nH]4)n[nH]c3cn2)c1 [compound 491] | 13.9%
18 | 12 nM | 9380 nM | 885 nM |  | CN1CCN(c2nccc3[nH]c(-c4n[nH]c5ccc(-c6cncc(CN7CCCC7)c6)cc45)cc23)CC1 [compound 492] | 31%
19 | 6 nM | 4970 nM | 912 nM | 100 nM | CN1CCN(c2cccc3[nH]c(-c4n[nH]c5ccc(-c6cncc(CN7CCCCC7)c6)cc45)cc23)CC1 [compound 493] | 198%
20 | 6 nM | 4160 nM | 524 nM | 10 nM | CN1CCN(c2nccc3[nH]c(-c4n[nH]c5ccc(-c6cncc(CN7CCCCC7)c6)nc45)cc23)CC1 [compound 496] | 70.8%

Row | EC50 [1] | EC50 [2] | EC50 [4] | EC50 [3] | SMILES | Emax [3]
21 | 5 nM | > 10000 nM | 678 nM |  | CN1CCN(c2ccnc3[nH]c(-c4n[nH]c5ncc(-c6cn[nH]c6)cc45)cc23)CC1 [compound 497] | 20.1%
22 | 3 nM | 915 nM | 42 nM |  | CCCCC(=O)Nc1cncc(-c2ccc3[nH]nc(-c4cc5c(-c6ccoc6)cncc5[nH]4)c3c2)c1 [compound 499] | 122%
23 | 12 nM | 890 nM | 117 nM |  | CC(C)(C)CC(=O)Nc1cncc(-c2ccc3[nH]nc(-c4cc5c(-c6ccoc6)ccnc5[nH]4)c3c2)c1 [compound 500] | 21.2%
24 | 11 nM | > 10000 nM | 418 nM | 10 nM | O=C(CC1CCNCC1)Nc1cncc(-c2ccc3[nH]nc(-c4cc5c(-c6ccoc6)ccnc5[nH]4)c3n2)c1 [compound 501] | 102%
25 | 14 nM | 3640 nM | 336 nM |  | c1cc(-c2ccoc2)c2cc(-c3n[nH]c4ccc(-c5cncc(CNCC6CCCC6)c5)nc34)[nH]c2c1 [compound 502] | 25.3%
26 | 10 nM | 1000 nM | 104 nM | 30 nM | FC1(F)CCN(Cc2cncc(-c3cnc4[nH]nc(-c5cc6c(-c7ccoc7)cccc6[nH]5)c4c3)c2)C1 [compound 503] | 72.1%
27 | 6 nM | 643 nM | 117 nM |  | COc1cncc(-c2ccc3[nH]nc(-c4cc5c(-c6ccoc6)nccc5[nH]4)c3c2)c1 [compound 504] | 35.5%
28 | 4 nM | 1910 nM | 217 nM |  | c1ncc(-c2ccc3[nH]nc(-c4cc5c(-c6ccoc6)nccc5[nH]4)c3c2)cn1 [compound 505] | 40.2%
29 | 8 nM | 572 nM | 392 nM | 10 nM | CC(C)CC(=O)Nc1cncc(-c2cc3c(-c4cc5c(-c6cccs6)nccc5[nH]4)n[nH]c3cn2)c1 [compound 506] | 81.4%
30 | 10 nM | 473 nM | 60 nM | 100 nM | O=C(Nc1cncc(-c2cnc3[nH]nc(-c4cc5c(-c6cccs6)nccc5[nH]4)c3c2)c1)C1CCC1 [compound 507] | 82.2%
31 | 7 nM | 578 nM | 68 nM |  | c1ccc(CNCc2cncc(-c3ccc4[nH]nc(-c5cc6c(-c7cccs7)cncc6[nH]5)c4c3)c2)cc1 [compound 508] | 57.4%
32 | 6 nM | 3680 nM | 140 nM | 10 nM | c1csc(-c2nccc3[nH]c(-c4n[nH]c5cnc(-c6cncc(CN7CCCCC7)c6)cc45)cc23)c1 [compound 509] | 59%
33 | 16 nM | 3550 nM | 1870 nM | 300 nM | c1csc(-c2ccnc3[nH]c(-c4n[nH]c5ccc(-c6cncc(OC7CCNCC7)c6)nc45)cc23)c1 [compound 510] | 51.4%
34 | 6 nM | 407 nM | 50 nM | 100 nM | CN(C)CCNc1cc(F)cc(-c2cccc3[nH]c(-c4n[nH]c5cnc(-c6cncc(N)c6)cc45)cc23)c1 [compound 511] | 180%
35 | 14 nM | > 10000 nM | 94 nM | 10 nM | CCCC(=O)Nc1cncc(-c2cc3c(-c4cc5c(-c6cc(F)cc(NCCN(C)C)c6)ccnc5[nH]4)n[nH]c3cn2)c1 [compound 512] | 162%
36 | 6 nM | 386 nM | 49 nM | 10 nM | CN(C)CCNc1cc(F)cc(-c2ccnc3[nH]c(-c4n[nH]c5cnc(-c6cncc(NC(=O)C(C)(C)C)c6)cc45)cc23)c1 [compound 513] | 87.3%
37 | 4 nM | 1270 nM | 49 nM |  | CN(C)CCNc1cc(F)cc(-c2ccnc3[nH]c(-c4n[nH]c5ccc(-c6cncc(CN7CCCCC7)c6)nc45)cc23)c1 [compound 514] | 48.5%
38 | 5 nM | 405 nM | 109 nM | 10 nM | CN(C)CCNc1cc(F)cc(-c2cccc3[nH]c(-c4n[nH]c5cnc(-c6cncc(O)c6)cc45)cc23)c1 [compound 515] | 66.4%
39 | 5 nM | 420 nM | 63 nM | 10 nM | CN(C)CCNc1cc(F)cc(-c2cccc3[nH]c(-c4n[nH]c5ccc(-c6cncnc6)nc45)cc23)c1 [compound 516] | 181%
